Measurements published in patent US10183022B2, “Pharmaceutical composition for treating ulcerative colitis” (EA Pharma Co., Ltd., priority 2014, dated 2019).
Where “and” joins values, the source holds several entries; their conditions need not be identical. Equal values may be shown once.

System: ulcerative colitis patients in an active stage
Assay: Clinical study, 960 mg orally 3 times a day for 8 weeks: Riley score (histopathological assessment of large intestinal mucosal biopsy)
Type: in vivo, human
Experimental: The compound of Example 1 or the compound of Comparative Example 1 was orally administered after meals 3 times a day. The number of the given tablets was 8 per administration (i.e., the amount of the compound (1) of Example 1 administered was 960 mg per administration). The administration period was 8 weeks. The compounds were administered until the timing after the breakfast on the day before the assessment day at Week 8.
At the time of the endoscopic examination on the large intestine for the mucosal finding assessment, large intestinal mucosal tissues were sampled (biopsy). The biopsy for the histopathological assessment at Week 0 was conducted during the endoscopic examination on the large intestine for the eligibility determination. […] The sampled tissues were fixed with formalin to prepare histopathological specimens.
The histopathological assessment was scored by a histopathological assessment central adjudication committee according to the following criteria. A Riley score is a total score of the following items.

Structure (SMILES): COC(=O)[C@H](Cc1ccc(-n2c(=O)c3cc(N(C)C)ccc3n(C)c2=O)cc1)NC(=O)c1c(Cl)cccc1Cl [Example 1, methyl(2S)-2-(2,6-dichlorobenzamide)-3-{4-[6-(dimethylamino)-1-methyl-2,4-dioxo-1,4-dihydroquinazolin-3(2H)-yl]phenyl}propanoate]
- Riley score, Lower quartile (Week 0): 9.0
- Riley score, Maximum (Week 0): 17
- Riley score, Mean (Week 0): 11.8±2.8 and 11.8
- Riley score, Median (Week 0): 12.0
- Riley score, Minimum (Week 0): 6
- Riley score, Upper quartile (Week 0): 14.0
- Riley score, Lower quartile (Week 8): 6.0
- Riley score, Maximum (Week 8): 16
- Riley score, Mean (Week 8): 8.6±3.4 and 8.6
- Riley score, Median (Week 8): 9.0
- Riley score, Minimum (Week 8): 3
- Riley score, Upper quartile (Week 8): 11.0
- Riley score, difference in mean between Example 1 and Comparative Example 1 (Week 8): −1.96
